According to patent US20050064442A1, “Methods for identifying risk of breast cancer and treatments thereof” (priority 2002, published 2005):

Tested on: cell lines where RAD21 expression is inhibited using siRNA
Test: Clonogenic survival assay
Format: cell-based
Description: Clonogenic survival assays measure survival of cells after treatment with cytotoxic agents. In this particular assay the aim is to investigate the effect of downregulating RAD21 expression on sensitivity to therapeutically relevant DNA damaging agent.
Cells were transfected with siRNA against RAD21, siRAD21—272, to reduce expression of RAD21. […] Cells were then trypsinized and replated at 200 cells per plate. Cells were grown for 11-12 days, fixed and stained with crystal violet to detect colonies. Colonies were then counted.
The data were fitted to a curve and the DRF values calculated from the fitted curves of siRAD21 and Lipofectamine.

**Q.** With bleomycin as the substance, how does the “sensitivity to drug in clonogenic survival” value (cell lines where RAD21 expression is inhibited using siRNA, FIGS. 9 and 10) read?
**A.** The value was “increased sensitivity”.

**Q.** And the “DRF20 (factor by which the dose can be reduced in the presence of decreased RAD21 expression)” value (cells transfected with siRAD21—272, drug exposure 2 hours, two days after transfection, colonies counted after 11-12 days, from fitted curves of siRAD21 and Lipofectamine)?
**A.** Its value is 1.15.
